Experimental data taken from patent US7585833B2, “Malodor covering perfumery” (Givaudan Fragrances Corporation, priority 2005, dated 2009).

Tests used:
[1] = Stability and malodor coverage evaluation of odorants in permanent hair color crème (10% ammonia); design: key to malodor coverage rating 1 Week RT / malodor coverage rating 1 Week Oven / malodor coverage rating 6 Weeks RT / malodor coverage rating 6 Weeks Oven / malodor coverage rating 2 Weeks RT / malodor coverage rating 2 Weeks Oven / malodor coverage rating 3 Weeks RT / malodor coverage rating 3 Weeks Oven / malodor coverage rating 4 Weeks RT / malodor coverage rating 4 Weeks Oven / malodor coverage rating 5 Weeks RT / malodor coverage rating 5 Weeks Oven: E: excellent; VG: very good; G: good coverage; key to odorant performance 1 Week RT / odorant performance 1 Week Oven / odorant performance 2 Weeks RT / odorant performance 2 Weeks Oven / odorant performance 3 Weeks RT / odorant performance 3 Weeks Oven / odorant performance 4 Weeks RT / odorant performance 4 Weeks Oven: E=excellent; VG=very good; G=good; F=fair; P=poor
Description: The marks E, VG, G stand for excellent, very good and good coverage and are part of a 5 scale rating system. […] Odorants were put up at 0.2% in the formulation, and odorants were subjected to 6 week stability testing at room temperature (R.T.) and […] oven temperature. […] G=good, F=fair; P=poor).

[2] = in water; cited from earlier work

Compound: CC=CC(=O)C1=C(C)CCCC1(C)C [β-damascone, β-1-(2,6,6-trimethyl-1-cyclohexen-1-yl)-2-buten-1-one]
- malodor coverage rating 1 Week Oven ([1]; 10% ammonia formulation, 1 week, oven at 37° C.): VG
- malodor coverage rating 1 Week RT ([1]; 10% ammonia formulation, 1 week, room temperature): E
- malodor coverage rating 2 Weeks Oven ([1]; 10% ammonia formulation, 2 weeks, oven at 37° C.): VG
- malodor coverage rating 2 Weeks RT ([1]; 10% ammonia formulation, 2 weeks, room temperature): E
- malodor coverage rating 3 Weeks Oven ([1]; 10% ammonia formulation, 3 weeks, oven at 37° C.): G
- malodor coverage rating 3 Weeks RT ([1]; 10% ammonia formulation, 3 weeks, room temperature): VG
- malodor coverage rating 4 Weeks Oven ([1]; 10% ammonia formulation, 4 weeks, oven at 37° C.): G
- malodor coverage rating 4 Weeks RT ([1]; 10% ammonia formulation, 4 weeks, room temperature): VG
- malodor coverage rating 5 Weeks Oven ([1]; 10% ammonia formulation, 5 weeks, oven at 37° C.): G
- malodor coverage rating 5 Weeks RT ([1]; 10% ammonia formulation, 5 weeks, room temperature): VG
- malodor coverage rating 6 Weeks Oven ([1]; 10% ammonia formulation, 6 weeks, oven at 37° C.): G
- malodor coverage rating 6 Weeks RT ([1]; 10% ammonia formulation, 6 weeks, room temperature): G
- odorant performance 1 Week Oven ([1]; odorant at 0.2% in dye less permanent hair color crème (10% ammonia hydroxide), 1 week, oven temperature): VG
- odorant performance 1 Week RT ([1]; odorant at 0.2% in dye less permanent hair color crème (10% ammonia hydroxide), 1 week, room temperature): E
- odorant performance 2 Weeks Oven ([1]; odorant at 0.2% in dye less permanent hair color crème (10% ammonia hydroxide), 2 weeks, oven temperature): VG
- odorant performance 2 Weeks RT ([1]; odorant at 0.2% in dye less permanent hair color crème (10% ammonia hydroxide), 2 weeks, room temperature): E
- odorant performance 3 Weeks Oven ([1]; odorant at 0.2% in dye less permanent hair color crème (10% ammonia hydroxide), 3 weeks, oven temperature): G
- odorant performance 3 Weeks RT ([1]; odorant at 0.2% in dye less permanent hair color crème (10% ammonia hydroxide), 3 weeks, room temperature): VG
- odorant performance 4 Weeks Oven ([1]; odorant at 0.2% in dye less permanent hair color crème (10% ammonia hydroxide), 4 weeks, oven temperature): G
- odorant performance 4 Weeks RT ([1]; odorant at 0.2% in dye less permanent hair color crème (10% ammonia hydroxide), 4 weeks, room temperature): VG
- odor detection threshold value in water [2]: 0.09 parts per billion
